# Laboratory results from patent publication US8586550B2, “Thiazole derivatives as SGLT2 inhibitors and pharmaceutical composition comprising same” (Green Cross Corporation, priority 2010, dated 2013).
# Target: T1, Human SGLT2 (hSGLT2) (Homo sapiens, UniProt P31639)
# T1 construct: expressed in transfected cells
# T1 sequence (P31639 1-672): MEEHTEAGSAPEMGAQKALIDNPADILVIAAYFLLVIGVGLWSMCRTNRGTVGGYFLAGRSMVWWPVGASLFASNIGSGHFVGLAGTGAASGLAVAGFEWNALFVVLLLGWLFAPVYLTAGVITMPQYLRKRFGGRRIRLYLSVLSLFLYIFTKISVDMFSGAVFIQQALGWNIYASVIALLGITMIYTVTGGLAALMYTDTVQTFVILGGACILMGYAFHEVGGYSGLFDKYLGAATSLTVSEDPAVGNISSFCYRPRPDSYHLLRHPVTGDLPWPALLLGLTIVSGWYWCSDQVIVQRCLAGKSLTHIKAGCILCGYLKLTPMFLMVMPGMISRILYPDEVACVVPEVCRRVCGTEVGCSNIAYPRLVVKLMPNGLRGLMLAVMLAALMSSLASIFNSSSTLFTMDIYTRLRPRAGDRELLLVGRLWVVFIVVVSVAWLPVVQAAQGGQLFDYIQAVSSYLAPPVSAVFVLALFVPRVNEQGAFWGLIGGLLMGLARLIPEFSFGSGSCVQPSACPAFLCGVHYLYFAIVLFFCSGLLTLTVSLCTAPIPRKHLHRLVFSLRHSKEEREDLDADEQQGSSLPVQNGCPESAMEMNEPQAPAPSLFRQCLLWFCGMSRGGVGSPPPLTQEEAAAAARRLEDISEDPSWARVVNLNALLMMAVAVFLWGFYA
# Experiment: Sodium-dependent glucose transport (14C-AMG uptake) assay in CHO cells stably expressing hSGLT2
# Assay type: cell-based
# Details: CHO cells expressing hSGLT2, 14C-AMG uptake, 37° C. for 2 h; single determinations; read-out: hSGLT2 Inhibitory Activity IC50
# Summary of the method: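 CHO cells stably expressing human SGLT2, preincubated 10 min at 37 °C in sodium-free choline buffer, then 2 h at 37 °C in Na+ buffer with 1 mM AMG plus 8 μM 14C-AMG and inhibitor. Washed cells counted by scintillation; IC50 by nonlinear regression.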
row,Compound,IC50 [nM]
1,"Cc1ccc(S(=O)(=O)OC[C@H]2O[C@@H](c3ccc(Cl)c(Cc4ncc(-c5ccco5)s4)c3)[C@H](O)[C@@H](O)[C@@H]2O)cc1 [Example 138, ((2R,3S,4R,5R,6S)-6-(4-Chloro-3-((5-(furan-2-yl)thiazol-2-yl)methyl)phenyl)-3,4,5-trihydroxy-tetrahydro-2H-pyran-2-yl)methyl 4-methylbenzenesulfonate]",156
2,"CCOC[C@H]1O[C@@H](c2ccc(Cl)c(Cc3ncc(-c4ccco4)s3)c2)[C@H](O)[C@@H](O)[C@@H]1O [Example 140, (2S,3R,4R,5S,6R)-2-(4-Chloro-3-((5-(furan-2-yl)thiazol-2-yl)methyl)phenyl)-6-(ethoxymethyl)tetrahydro-2H-pyran-3,4,5-triol]",68.7
3,"O=C(OCc1ccccc1)OC[C@H]1O[C@@H](c2ccc(Cl)c(Cc3ncc(-c4ccco4)s3)c2)[C@H](O)[C@@H](O)[C@@H]1O [Example 164, Benzyl ((2R,3S,4R,5R,6S)-6-(4-chloro-3-((5-(furan-2-yl)thiazol-2-yl)methyl)phenyl)-3,4,5-trihydroxytetrahydro-2H-pyran-2-yl)methyl carbonate]",2.44
4,"COc1cc(Cl)c(Cc2ncc(-c3ccco3)s2)cc1[C@@H]1O[C@H](CO)[C@@H](O)[C@H](O)[C@H]1O [Example 69, (2S,3R,4R,5S,6R)-2-(4-Chloro-5-((5-(furan-2-yl)thiazol-2-yl)methyl)-2-methoxyphenyl)-6-(hydroxymethyl)tetrahydro-2H-pyran-3,4,5-triol]",2.24
5,"OC[C@H]1O[C@@H](c2ccc(F)c(Cc3ncc(-c4ccoc4)s3)c2)[C@H](O)[C@@H](O)[C@@H]1O [Example 41, (2S,3R,4R,5S,6R)-2-(4-Fluoro-3-((5-(furan-3-yl)thiazol-2-yl)methyl)phenyl)-6-(hydroxymethyl)tetrahydro-2H-pyran-3,4,5-triol]",30.5
6,"OC[C@H]1O[C@@H](c2ccc(Cl)c(Cc3cnc(-c4ccc(Cl)s4)s3)c2)[C@H](O)[C@@H](O)[C@@H]1O [Example 189, (2S,3R,4R,5S,6R)-2-(4-Chloro-3-((2-(5-chlorothiophen-2-yl)thiazol-5-yl)methyl)phenyl)-6-(hydroxymethyl)tetrahydro-2H-pyran-3,4,5-triol]",8.64
7,"OC[C@H]1O[C@@H](c2cc(Cc3ncc(-c4ccco4)s3)cc3ccccc23)[C@H](O)[C@@H](O)[C@@H]1O [Example 93, (2S,3R,4R,5S,6R)-2-(3-((5-(Furan-2-yl)thiazol-2-yl)methyl)naphthalen-1-yl)-6-(hydroxymethyl)tetrahydro-2H-pyran-3,4,5-triol]",14.3
8,"OC[C@H]1O[C@@H](c2ccc(Cl)c(Cc3ncc(C4CCCC4)s3)c2)[C@H](O)[C@@H](O)[C@@H]1O [Example 19, (2S,3R,4R,5S,6R)-2-(4-Chloro-3-((5-cyclopentylthiazol-2-yl)methyl)phenyl)-6-(hydroxymethyl)-tetrahydro-2H-pyran-3,4,5-triol]",9.71
9,OC[C@H]1O[C@@H](c2ccc(Cl)c(Cc3cnc(-c4cnccn4)s3)c2)[C@H](O)[C@@H](O)[C@@H]1O [Example 195],4.35
10,"OC[C@H]1O[C@@H](c2ccc(Cl)c(C3(c4ncc(-c5cccs5)s4)CC3)c2)[C@H](O)[C@@H](O)[C@@H]1O [Example 29, (2S,3R,4R,5S,6R)-2-(4-Chloro-3-(1-(5-(thiophen-2-yl)thiazol-2-yl)cyclopropyl)phenyl)-6-(hydroxymethyl)tetrahydro-2H-pyran-3,4,5-triol]",38.6
11,"Cc1cnc(Cc2cn([C@@H]3O[C@H](CO)[C@@H](O)[C@H](O)[C@H]3O)c3ccccc23)s1 [Example 132, (2R,3S,4S,5R,6R)-2-(Hydroxymethyl)-6-(3-((5-methylthiazol-2-yl)methyl)-1H-indol-1-yl)tetrahydro-2H-pyran-3,4,5-triol]",162
12,"OC[C@H]1O[C@@H](c2ccc(Cl)c(Cc3cnc(-c4cscn4)s3)c2)[C@H](O)[C@@H](O)[C@@H]1O [Example 193, (2S,3R,4R,5S,6R)-2-(3-(2,4′-Bithiazol-5-ylmethyl)-4-chlorophenyl)-6-(hydroxymethyl)tetrahydro-2H-pyran-3,4,5-triol]",17.7
13,"CCOc1cc(Cl)c(Cc2ncc(-c3cccs3)s2)cc1[C@@H]1O[C@H](CO)[C@@H](O)[C@H](O)[C@H]1O [Example 79, (2S,3R,4R,5S,6R)-2-(4-Chloro-2-ethoxy-5-((5-(thiophen-2-yl)thiazol-2-yl)methyl)phenyl)-6-(hydroxymethyl)tetralrydro-2H-pyran-3,4,5-triol]",4.29

# More lines, in order of falling IC50, values ahead:
row,IC50 [nM],Compound
1,124,"OC[C@H]1O[C@@H](c2cn(Cc3ncc(-c4ccccc4)s3)c3ccccc23)[C@H](O)[C@@H](O)[C@@H]1O [Example 137, (2R,3S,4R,5R,6S)-2-(Hydroxymethyl)-6-(1-((5-phenylthiazol-2-yl)methyl)-1H-indol-3-yl)-tetrahydro-2H-pyran-3,4,5-triol]"
2,56.4,"CCCSc1cnc(Cc2cc([C@@H]3O[C@H](CO)[C@@H](O)[C@H](O)[C@H]3O)ccc2Cl)s1 [Example 25, (2S,3R,4R,5S,6R)-2-(4-Chloro-3-((5-(propylthio)thiazol-2-yl)methyl)phenyl)-6-(hydroxymethyl)-tetrahydro-2H-pyran-3,4,5-triol]"
3,50.3,"COc1c(Cc2ncc(C3CCCCC3)s2)cc([C@@H]2O[C@H](CO)[C@@H](O)[C@H](O)[C@H]2O)c2ccccc12 [Example 102, (2S,3R,4R,5S,6R)-2-(3-((5-Cyclohexylthiazol-2-yl)methyl)-4-methoxynaphthalen-1-yl)-6-(hydroxymethyl)-tetrahydro-2H-pyran-3,4,5-triol]"
4,33,"OC[C@H]1O[C@@H](c2cc(Cc3ncc(C4CCCC4)s3)c(Cl)cc2Cl)[C@H](O)[C@@H](O)[C@@H]1O [Example 68, (2S,3R,4R,5S,6R)-2-(2,4-Dichloro-5-((5-cyclopentylthiazol-2-yl)methyl)phenyl)-6-(hydroxymethyl)tetrahydro-2H-pyran-3,4,5-triol]"
5,30.9,"CCSc1cnc(Cc2cc([C@@H]3O[C@H](CO)[C@@H](O)[C@H](O)[C@H]3O)ccc2Cl)s1 [Example 24, (2S,3R,4R,5S,6R)-2-(4-Chloro-3-((5-(ethylthio)thiazol-2-yl)methyl)phenyl)-6-(hydroxymethyl)-tetrahydro-2H-pyran-3,4,5-triol]"
6,23.5,"COC[C@H]1O[C@@H](c2ccc(Cl)c(Cc3ncc(-c4ccco4)s3)c2)[C@H](O)[C@@H](O)[C@@H]1O [Example 139, (2S,3R,4R,5S,6R)-2-(4-Chloro-3-((5-(furan-2-yl)thiazol-2-yl)methyl)phenyl)-6-(methoxymethyl)-tetrahydro-2H-pyran-3,4,5-triol]"
7,16.7,"CCc1cnc(Cc2cc([C@@H]3O[C@H](CO)[C@@H](O)[C@H](O)[C@H]3O)ccc2Cl)s1 [Example 12, (2S,3R,4R,5S,6R)-2-(4-chloro-3-((5-ethylthiazol-2-yl)methyl)phenyl)-6-(hydroxymethyl)-tetrahydro-2H-pyran-3,4,5-triol]"
8,14.6,"OC[C@H]1O[C@@H](c2ccc(C(F)(F)F)c(Cc3ncc(-c4ccsc4)s3)c2)[C@H](O)[C@@H](O)[C@@H]1O [Example 50, (2R,3S,4R,5R,6S)-2-(Hydroxymethyl)-6-(3-((5-(thiophen-3-yl)thiazol-2-yl)methyl)-4-(trifluoromethyl)phenyl)tetrahydro-2H-pyran-3,4,5-triol]"
9,7.55,"CCOc1cc(Cl)c(Cc2ncc(-c3ccc(F)cc3)s2)cc1[C@@H]1O[C@H](CO)[C@@H](O)[C@H](O)[C@H]1O [Example 82, (2S,3R,4R,5S,6R)-2-(4-Chloro-2-ethoxy-5-((5-(4-fluorophenyl)thiazol-2-yl)methyl)phenyl)-6-(hydroxymethyl)tetrahydro-2H-pyran-3,4,5-triol]"
10,7.3,"CCCCCCCc1cnc(Cc2cc([C@@H]3O[C@H](CO)[C@@H](O)[C@H](O)[C@H]3O)c3ccccc3c2OC)s1 [Example 100, (2S,3R,4R,5S,6R)-2-(3-((5-Heptylthiazol-2-yl)methyl)-4-methoxynaphthalen-1-yl)-6-(hydroxymethyl)-tetrahydro-2H-pyran-3,4,5-triol]"
11,4.57,"OC[C@H]1O[C@@H](c2cc(Cc3ncc(-c4ccccc4)s3)c(Cl)cc2F)[C@H](O)[C@@H](O)[C@@H]1O [Example 57, (2S,3R,4R,5S,6R)-2-(4-Chloro-2-fluoro-5-((5-phenylthiazol-2-yl)methyl)phenyl)-6-(hydroxymethyl)tetrahydro-2H-pyran-3,4,5-triol]"
12,1.69,"C=CCOc1cc(Cl)c(Cc2ncc(-c3cccs3)s2)cc1[C@@H]1O[C@H](CO)[C@@H](O)[C@H](O)[C@H]1O [Example 85, (2S,3R,4R,5S,6R)-2-(2-(Allyloxy)-4-chloro-5-((5-(thiophen-2-yl)thiazol-2-yl)methyl)phenyl)-6-(hydroxymethyl)tetrahydro-2H-pyran-3,4,5-triol]"
13,1.59,"(2S,3R,4R,5S,6R)-2-(4-Chloro-3-((4-phenylthiazol-2-yl)methyl)phenyl)-6-(hydroxymethyl)tetrahydro-2H-pyran-3,4,5-triol [Example 71]"
